US10035800B2 (AbbVie Inc., priority 2013, dated 2018)
Several values for one entry are separate records, joined by “and”; a condition that tells them apart may be missing. Equal values may be shown once. Read-outs that look alike come from different tables or passages of the source. Marks after values point to notes of the source that are not given here.

Legend:
[1] = test system: breast cancer cell line MX-1; experiment: MX-1 cell line proliferation assay; type: cell-based; details: MX-1 cells, 3-day proliferation assay, Cell Titer Glo; read-out: Cellular proliferation: EC50
In short: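 MX-1 cells at 5000/well, in RPMI 1640 with 10% FBS, were exposed to compounds for 3 days. Final concentrations ranged 3 μM–0.1 nM or 1 μM–0.03 nM, in 3-fold steps. Cell Titer Glo luminescence was normalized to DMSO and fitted sigmoidally for EC50; overall MSR 2.1.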

[2] = test system: IL-6 (Interleukin-6) production; experiment: LPS (lipopolysaccharide) induced IL-6 production mouse assay; type: in vivo, mice; details: oral administration 1 h before LPS 2.5 mg/kg ip, serum 2 h after LPS, p < 0.05 vs vehicle
Protocol: LPS (Lipopolysaccharide) Induced IL-6 Production Mouse Assay
Compounds of the Examples listed in Table 2 were assayed for their ability to inhibit LPS (lipopolysaccharide) induced IL-6 (Interleukin-6) production in mice. Fox Chase SCID® female mice (Charles Rivers Labs, 5 per group) or CD1 female mice (5 per group) received an intraperitoneal challenge of lipopolysaccharide (2.5 mg/kg, L2630 E. coli 0111:B4) one hour after oral administration of compounds. Mice were euthanized 2 hours after lipopolysaccharide injection, blood was removed by cardiac puncture, and then the serum harvested from the blood samples was frozen at −80° C. On the day of the assay the serum samples were brought to room temperature and then diluted 1:20 in phosphate-buffered saline containing 2% bovine serum albumin. Interleukin-6 measurements were performed using a cytokine assay from Meso Scale Discovery (Gaithersburg, Md.) for mouse serum analysis according to the manufacturer's protocol and read on a SECTOR Imager 6000 (Meso Scale Discovery, Gaithersburg, Md.) instrument. Statistical analysis was performed using Prism software (version 5.0) incorporating Dunnett's one way ANOVA. The IL-6 mean and standard deviation of the group of vehicle treated animals were compared with the IL-6 mean and standard deviation of the group treated with drug. A p value <0.05 means that there is less than a 5% probability that the mean values in the two groups are equal.

OPM-2 xenograft tumors = details: SCID-beige mice
Protocol: Xenograft Tumor Growth Inhibition Assay
A suspension of cancer cells (5×10^6 per 0.1 mL) prepared in RPMI culture medium (Invitrogen, Carlsbad, Calif.) was diluted 1:1 with a solution of Matrigel™ (BD Biosciences, Franklin Lakes, N.J.) and inoculated subcutaneously into the right hind flank of female SCID-beige (Charles River Labs) mice. Randomization into treatment and vehicle control groups (8-10/group) occurred when the mean tumor volume reached approximately 250 mm^3. Compounds were formulated in 2.5% DMSO, 10% ethanol, 27.5% PEG 400, 60% Phosol 53 MCT. Administration of compound or vehicle was initiated on the day following randomization and continued for 21 days. Tumors were measured twice a week throughout the treatment period using a pair of calipers and tumor volumes were calculated according to the formula V=L×W^2/2 (V: volume, mm^3; L: length, mm. W: width, mm).

BRD4 (BDII_E352-M457) = biological target: T1, BRD4 (BDII_E352-M457) (Homo sapiens, UniProt O60885); experiment: TR-FRET bromodomain binding assay, second bromodomain of BRD4; details: TR-FRET assay protocol G (compound 0.92 μM-15 pM); 30 nM probe
T1 construct: protocol; made in house
In short: (§1)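 Probe displacement by TR-FRET: 8 nM His-BRD4 bromodomain, 1 nM Eu-anti-His, Alexa647 BET-inhibitor probe at 100 nM (BDI) or 30 nM (BDII); 20 mM Na phosphate pH 6.0, 2% DMSO; 1 h RT. Ex 340, Em 495/520. IC50 from 4PL fit; Ki from IC50, probe Kd and probe concentration.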

BRD4 (BDI_K57-E168) = biological target: T2, BRD4 (BDI_K57-E168) (Homo sapiens, UniProt O60885); experiment: TR-FRET bromodomain binding assay, first bromodomain of BRD4; details: TR-FRET assay protocol G (compound 0.92 μM-15 pM); 100 nM probe
T2 construct: BD1: amino acids K57-E168; made in house
In short: as §1

EC50 [1] | Ki (BRD4 (BDII_E352-M457)) | Ki (BRD4 (BDI_K57-E168)) | Compound | % inhibition of LPS induced IL-6 production ([2]; mouse strain CD1) | also measured
3.82 nM | 1.72 nM | 1.14 nM | Cn1cc2c3c(c[nH]c3c1=O)CN(C1CCC(NC(=O)OC(C)(C)C)CC1)c1ccc(CS(C)(=O)=O)cc1-2 (mixture of isomers) [Example 196] | 79% | % TGI (OPM-2 xenograft tumors; 2.5 mg/kg PO, QD x21): 84*** %; % TGI (OPM-2 xenograft tumors; 5 mg/kg PO, QD x21): 92*** %
0.721 nM | 1.11 nM | 0.453 nM | Cn1cc2c3c(c[nH]c3c1=O)CN(c1ccc(F)cc1)c1ccc(CS(C)(=O)=O)cc1-2 [Example 9, 4-(4-fluorophenyl)-10-methyl-7-((methylsulfonyl)methyl)-3,4-dihydro-1H-1,4,10-triazadibenzo[cd,f]azulen-11(10H)-one] | – | % inhibition of LPS induced IL-6 production ([2]; mouse strain SCID): 79%; % TGI (OPM-2 xenograft tumors; 1.85 mg/kg PO, QD x21): 87*** %
4 nM | 0.472 nM | 1.34 nM | Cn1cc2c3c(c[nH]c3c1=O)CN(c1ccc(F)cc1F)c1ccc(CS(C)(=O)=O)cc1-2 [Example 12, 4-(2,4-difluorophenyl)-10-methyl-7-((methylsulfonyl)methyl)-3,4-dihydro-1H-1,4,10-triazadibenzo[cd,f]azulen-11(10H)-one] | – | % inhibition of LPS induced IL-6 production ([2]; mouse strain SCID): 90%; % TGI (OPM-2 xenograft tumors; 1.5 mg/kg IP, QD x21): 82** % and 91*** %; % TGI (OPM-2 xenograft tumors; 1.5 mg/kg PO, QD x21): 87*** %; % TGI (OPM-2 xenograft tumors; 3 mg/kg IP, QD x21): 89** %; % TGI (OPM-2 xenograft tumors; 3 mg/kg PO, 3 on 4 off x3 weeks): 81*** %; % TGI (OPM-2 xenograft tumors; 3 mg/kg PO, QD x11): 72*** %; % TGI (OPM-2 xenograft tumors; 3 mg/kg PO, QD x21): 94*** %
19.9 nM | 3.14 nM | 6.72 nM | CCOC(=O)N1Cc2c[nH]c3c(=O)n(C)cc(c23)-c2cc(F)cc(F)c21 [Example 173, ethyl 5,7-difluoro-10-methyl-11-oxo-10,11-dihydro-1H-1,4,10-triazadibenzo[cd,f]azulene-4(3H)-carboxylate] | 87% | % TGI (OPM-2 xenograft tumors; 1.25 mg/kg PO, QD x21): 49** %
0.69 nM | 0.63 nM | 1.59 nM | Cn1cc2c3c(c[nH]c3c1=O)CN(c1ccc(Cl)cc1)c1ccc(CS(C)(=O)=O)cc1-2 [Example 198, 4-(4-chlorophenyl)-10-methyl-7-((methylsulfonyl)methyl)-3,4-dihydro-1H-1,4,10-triazadibenzo[cd,f]azulen-11(10H)-one] | 86% | –
10.8 nM | 1.21 nM | 0.81 nM | Cn1cc2c3c(c(C#N)[nH]c3c1=O)CN(c1ccc(Cl)cc1)c1ccc(CS(C)(=O)=O)cc1-2 [Example 199, 4-(4-chlorophenyl)-10-methyl-7-((methylsulfonyl)methyl)-11-oxo-3,4,10,11-tetrahydro-1H-1,4,10-triazadibenzo[cd,f]azulene-2-carbonitrile] | 90% | % TGI (OPM-2 xenograft tumors; 1.25 mg/kg PO, QD x21): 91*** %
4.3 nM | 0.35 nM | 0.79 nM | CCNC(=O)c1[nH]c2c(=O)n(C)cc3c2c1CN(c1ccc(F)cc1F)c1ccc(CS(C)(=O)=O)cc1-3 [Example 202, 4-(2,4-difluorophenyl)-N-ethyl-10-methyl-7-((methylsulfonyl)methyl)-11-oxo-3,4,10,11-tetrahydro-1H-1,4,10-triazadibenzo[cd,f]azulene-2-carboxamide] | 47% | –
1.33 nM | 2.09 nM | 0.92 nM | Cn1cc2c3c(c[nH]c3c1=O)CN(c1ccccn1)c1ccc(CS(C)(=O)=O)cc1-2 [Example 207, 10-methyl-7-((methylsulfonyl)methyl)-4-(pyridin-2-yl)-3,4-dihydro-1H-1,4,10-triazadibenzo[cd,f]azulen-11(10H)-one] | 65% | % TGI (OPM-2 xenograft tumors; 0.25 mg/kg PO, QD x21): 60*** %; % TGI (OPM-2 xenograft tumors; 0.5 mg/kg PO, QD x21): 93*** % and 94*** %; % TGI (OPM-2 xenograft tumors; 1 mg/kg PO, QD x21): 97*** %
1.4 nM | 0.42 nM | 0.65 nM | Cn1cc2c3c(c[nH]c3c1=O)CN(c1ncc(F)cc1F)c1ccc(CS(C)(=O)=O)cc1-2 [Example 213, 4-(3,5-difluoropyridin-2-yl)-10-methyl-7-((methylsulfonyl)methyl)-3,4-dihydro-1H-1,4,10-triazadibenzo[cd,f]azulen-11(10H)-one] | – | % TGI (OPM-2 xenograft tumors; 0.5 mg/kg PO, QD x21): 82*** %; % TGI (OPM-2 xenograft tumors; 1 mg/kg PO, QD x21): 96*** % and 95*** %
1.47 nM | 0.38 nM | 1.33 nM | N-ethyl-4-(4-fluorophenyl)-10-methyl-7-((methylsulfonyl)methyl)-11-oxo-3,4,10,11-tetrahydro-1H-1,4,10-triazadibenzo[cd,f]azulene-2-carboxamide [Example 194] | 53% | –
